What was measured:
Format in all cases: physicochemical
[1] = Light exposure stability test; conditions: for By-product I / Piperacillin / Total amount of relative substances: Initiation of test
Method: As test substances, the VI type crystal (Example 2) and the amorphous body (Comparative example 1) were used.
Test substance 2.2 g was put in a C2 vial made by Daiichi Glass Co., Ltd., and after the vial was filled with nitrogen gas, the vial was radiated ([…] 1×/hr) with D65 lamp (FLR20S-D-EDL-D65/M) at 25° C.
After the initiation of the test and the radiation of […] 1×/hr, the purity of each test substances was measured by high-performance liquid chromatographic method (a notice of the 340th Apr. 4, 2001 by Ministry of Health and Welfare medicinal safe directors of bureaus).

[2] = Coloration stability test (storage at 60° C.); conditions: for Coloration stability of exterior appearance: 60° C. storage, result in words
Method: (§1) As test substances, the V type crystal (Example 1), the VI type crystal (Example 2) and the amorphous body (Comparative example 1) were used.
Test substance 2.2 g was put in a C2 vial made by Daiichi Glass Co., Ltd., and after the vial was filled with nitrogen gas, the vial was stored at 60° C. After the initiation of the test, the color difference (ΔE), degree of whiteness (W) and yellowness (YI) of each test substances were measured by a color-difference meter at 1 week, 2 weeks and 4 weeks later.

[3] = Light exposure stability test; conditions: D65 lamp, 25° C., 1.20 million lx·hr
[4] = Purity stability test (storage at 60° C.); conditions: for Purity stability: 60° C. storage, result in words
Method: as §1
Test substance 2.2 g was put in a C2 vial made by Daiichi Glass Co., Ltd., and after the vial was filled with nitrogen gas, the vial was stored at 60° C. After the initiation of the test, the purity of each test substances was measured by high-performance liquid chromatographic method at 1 week, 2 weeks and 4 weeks later (a notice of the 340th Apr. 4, 2001 by Ministry of Health and Welfare medicinal safe directors of bureaus).

Hygroscopic test = conditions: for Ratio of change of weight: 25° C., three days; for Hygroscopic (moisture absorption) stability compared with the amorphous body: result in words
Method: as §1
Test substances were allowed to stand at 25° C. for three days under 7, 11, 22, 33 and 57% relative humidity, the content of moisture was measured according to Japanese pharmacopoeia, general tests, water determination method (Karl Fischer's method) and the changes of weight were calculated.

Dissolution test = conditions: for Dissolution time: 2.2 g in injectable water 10 mL, shaken, complete dissolution by unaided eye, mean of three, sodium monohydrate; for Dissolution compared with the amorphous body: result in words
Method: as §1
Test substance 2.2 g was put in a C2 vial made by Daiichi Glass Co., Ltd., injectable water 10 mL was added to the vial, the vial was fixed laterally and was shaken by MRK incubator-shaker (4 cm of shaking width, 48 times/minute of shaking rate).
Complete dissolution was judged by an unaided eye, and the length of time to need for the complete dissolution was measured.
The test was carried out at three times respectively, and those mean values were assumed to the dissolution time.

[5] = 60° C., 1 week, nitrogen-filled vial
[6] = 60° C., 2 weeks, nitrogen-filled vial
[7] = 60° C., 4 weeks, nitrogen-filled vial
[8] = 60° C., 1 week, sodium monohydrate
[9] = 60° C., 2 weeks, sodium monohydrate
[10] = 60° C., 4 weeks, sodium monohydrate
[11] = Initiation of test, sodium monohydrate
[12] = 60° C., 1 week, nitrogen-filled vial, sodium monohydrate
[13] = 60° C., 2 weeks, nitrogen-filled vial, sodium monohydrate
[14] = 60° C., 4 weeks, nitrogen-filled vial, sodium monohydrate
[15] = 7% relative humidity, sodium monohydrate
[16] = 11% relative humidity, sodium monohydrate
[17] = 22% relative humidity, sodium monohydrate
[18] = 33% relative humidity, sodium monohydrate
[19] = 57% relative humidity, sodium monohydrate

## CCN1CCN(C(=O)N[C@@H](C(=O)N[C@@H]2C(=O)N3[C@@H]2SC(C)(C)[C@@H]3C(=O)[O-])c2ccccc2)C(=O)C1=O.[Na+] [Comparative example 1, piperacillin sodium]
[1]
  By-product I: 0.23
  Piperacillin: 99.10
  Total amount of relative substances: 0.90
[2]; 60° C., 1 week
  Color difference (ΔE): 2.76
  Degree of whiteness (W): 94.66
  Degree of yellowness (YI): 6.51
[2]; 60° C., 2 weeks
  Color difference (ΔE): 4.27
  Degree of whiteness (W): 93.29
  Degree of yellowness (YI): 8.97
[2]; 60° C., 4 weeks
  Color difference (ΔE): 5.73
  Degree of whiteness (W): 91.87
  Degree of yellowness (YI): 11.25
[2]; Initiation of test
  Degree of whiteness (W): 96.86
  Degree of yellowness (YI): 2.17
[3]
  By-product I: 0.31
  Piperacillin: 98.86
  Total amount of relative substances: 1.14
[4]; [5]
  By-product I: 0.80
  Decomposition product I: 0.13
  Piperacillin: 98.27
[4]; [6]
  By-product I: 0.97
  Decomposition product I: 0.17
  Piperacillin: 98.05
[4]; [7]
  By-product I: 1.21
  Decomposition product I: 0.30
  Piperacillin: 97.04
[4]; Initiation of test
  By-product I: 0.22
  Decomposition product I: 0.01
  Piperacillin: 99.51
Hygroscopic test; 7% relative humidity
  Ratio of change of weight: 2.20 w/w %
Hygroscopic test; 11% relative humidity
  Ratio of change of weight: 3.12 w/w %
Hygroscopic test; 22% relative humidity
  Ratio of change of weight: 4.99 w/w %
Hygroscopic test; 33% relative humidity
  Ratio of change of weight: 6.78 w/w %
Hygroscopic test; 57% relative humidity
  Ratio of change of weight: 11.03 w/w %

## CCN1CCN(C(=O)N[C@@H](C(=O)N[C@@H]2C(=O)N3[C@@H]2SC(C)(C)[C@@H]3C(=O)O)c2ccccc2)C(=O)C1=O [Example 1, piperacillin sodium monohydrate]
[2]
  Coloration stability of exterior appearance: stable
[2]; [8]
  Color difference (ΔE): 0.60
  Degree of whiteness (W): 96.64
  Degree of yellowness (YI): 1.77
[2]; [9]
  Color difference (ΔE): 0.69
  Degree of whiteness (W): 96.55
  Degree of yellowness (YI): 1.96
[2]; [10]
  Color difference (ΔE): 1.33
  Degree of whiteness (W): 96.20
  Degree of yellowness (YI): 3.03
[2]; [11]
  Degree of whiteness (W): 96.45
  Degree of yellowness (YI): 0.94
[4]
  Purity stability: stable
[4]; [12]
  By-product I: 0.21
  Decomposition product I: 0.03
  Piperacillin: 99.66
[4]; [13]
  By-product I: 0.33
  Decomposition product I: 0.08
  Piperacillin: 99.37
[4]; [14]
  By-product I: 0.59
  Decomposition product I: 0.26
  Piperacillin: 98.62
[4]; Initiation of test
  Decomposition product I: Not detected
[4]; [11]
  By-product I: 0.04
  Piperacillin: 99.92
Dissolution test
  Dissolution time: 43 s
  Dissolution compared with the amorphous body: dissolved in a short period of time than the amorphous body
Hygroscopic test; [15]
  Ratio of change of weight: 0 w/w %
Hygroscopic test; [16]
  Ratio of change of weight: 0.93 w/w %
Hygroscopic test; [17]
  Ratio of change of weight: 3.18 w/w %
Hygroscopic test; [18]
  Ratio of change of weight: 4.77 w/w %
Hygroscopic test; [19]
  Ratio of change of weight: 8.43 w/w %
Hygroscopic test; listed as V type crystal, sodium monohydrate
  Hygroscopic (moisture absorption) stability compared with the amorphous body: superior in the moisture absorption stability to the amorphous body

## CCN1CCN(C(=O)N[C@@H](C(=O)N[C@@H]2C(=O)N3[C@@H]2SC(C)(C)[C@@H]3C(=O)O)c2ccccc2)C(=O)C1=O [Example 2, piperacillin sodium monohydrate]
[1]
  By-product I: 0.15
  Piperacillin: 99.81
  Total amount of relative substances: 0.19
[1]; result in words
  Light exposure stability: stable
[2]
  Coloration stability of exterior appearance: stable
[2]; [8]
  Color difference (ΔE): 0.39
  Degree of whiteness (W): 95.64
  Degree of yellowness (YI): 1.35
[2]; [9]
  Color difference (ΔE): 0.54
  Degree of whiteness (W): 95.60
  Degree of yellowness (YI): 1.64
[2]; [10]
  Color difference (ΔE): 0.79
  Degree of whiteness (W): 95.57
  Degree of yellowness (YI): 2.02
[2]; [11]
  Degree of whiteness (W): 95.94
  Degree of yellowness (YI): 0.85
[3]
  By-product I: 0.14
  Piperacillin: 99.73
  Total amount of relative substances: 0.27
[4]
  Purity stability: stable
[4]; [12]
  By-product I: 0.07
  Decomposition product I: 0.01
  Piperacillin: 99.82
[4]; [13]
  By-product I: 0.11
  Decomposition product I: 0.02
  Piperacillin: 99.75
[4]; [14]
  By-product I: 0.11
  Decomposition product I: 0.04
  Piperacillin: 99.73
[4]; Initiation of test
  Decomposition product I: Not detected
[4]; [11]
  By-product I: 0.02
  Piperacillin: 99.94
Dissolution test
  Dissolution time: 50 s
  Dissolution compared with the amorphous body: dissolved in a short period of time than the amorphous body
Hygroscopic test; [15]
  Ratio of change of weight: 1.16 w/w %
Hygroscopic test; [16]
  Ratio of change of weight: 1.54 w/w %
Hygroscopic test; [17]
  Ratio of change of weight: 3.14 w/w %
Hygroscopic test; [18]
  Ratio of change of weight: 3.98 w/w %
Hygroscopic test; [19]
  Ratio of change of weight: 5.28 w/w %
Hygroscopic test; listed as VI type crystal, sodium monohydrate
  Hygroscopic (moisture absorption) stability compared with the amorphous body: superior in the moisture absorption stability to the amorphous body

## CCN1CCN(C(=O)N[C@@H](C(=O)N[C@@H]2C(=O)N3[C@@H]2SC(C)(C)[C@@H]3C(=O)O)c2ccccc2)C(=O)C1=O [III type crystal, piperacillin sodium monohydrate]
Dissolution test
  Dissolution compared with the amorphous body: dissolved in a short period of time than the amorphous body
Hygroscopic test; sodium monohydrate
  Hygroscopic (moisture absorption) stability compared with the amorphous body: superior in hygroscopic stability to the amorphous body
